# Species: Rattus norvegicus
# Assay: Open TG-GATES - Regimen: Single
# Assay type: toxicity, organism-based, Sprague-Dawley
# Design: regimen Single, gender Male, age 6 weeks
# Details: in vivo, po, 0 mg/kg, route gavage, dose level Control; for APTT / Bas / Eos / Fbg / Hb / Ht / Lym / MCH / MCHC / MCV / Mono / Neu / PT / Plat / RBC / Ret / WBC: tissue Blood; for KIDNEY_L / KIDNEY_R / KIDNEY_TOTAL: tissue Kidney; for LIVER: tissue Liver; for A/G / ALP / ALT / AST / BUN / CRE / Ca / Cl / DBIL / GLC / IP / K / LDH / Na / PL / RALB / TBIL / TC / TG / TP / gamma-GTP: tissue Plasma
smiles,measurement,setting,value
O=C(O)c1ccccc1Nc1ccccc1 [FENAMIC ACID],TERMINAL_BW,3 h,209.2 g
same,APTT,3 h,16.5 s
same,Bas,3 h,0.4%
same,Eos,3 h,1%
same,Fbg,3 h,255.6 mg/dL
same,Hb,3 h,13.1 g/dL
same,Ht,3 h,39.6%
same,Lym,3 h,73.4%
same,MCH,3 h,20.8 pg
same,MCHC,3 h,33%
same,MCV,3 h,63.1 fL
same,Mono,3 h,2%
same,Neu,3 h,22.8%
same,PT,3 h,14 s
same,Plat,3 h,119.2 x10_4/uL
same,RBC,3 h,627.8 x10_4/ul
same,Ret,3 h,8.3%
same,WBC,3 h,95.4 x10_2/uL
same,KIDNEY_L,3 h,0.9 g
same,KIDNEY_R,3 h,0.9 g
same,KIDNEY_TOTAL,3 h,1.8 g
same,LIVER,3 h,8.8 g
same,A/G,3 h,0.9
same,ALP,3 h,1511 IU/L
same,ALT,3 h,33.2 IU/L
same,AST,3 h,75 IU/L
same,BUN,3 h,9.2 mg/dL
same,CRE,3 h,0.2 mg/dL
same,Ca,3 h,10.9 mg/dL
same,Cl,3 h,105.4 meq/L
same,DBIL,3 h,0.008 mg/dL
same,GLC,3 h,185.4 mg/dL
same,IP,3 h,9 mg/dL
same,K,3 h,4.2 meq/L
same,LDH,3 h,75.4 IU/L
same,Na,3 h,144 meq/L
same,PL,3 h,132 mg/dL
same,RALB,3 h,2.5 g/dL
same,TBIL,3 h,0.05 mg/dL
same,TC,3 h,69 mg/dL
same,TG,3 h,77.6 mg/dL
same,TP,3 h,5.4 g/dL
same,gamma-GTP,3 h,1 IU/L
same,TERMINAL_BW,6 h,204.2 g
same,APTT,6 h,18.5 s
same,Bas,6 h,0.4%
same,Eos,6 h,0.8%
same,Fbg,6 h,283.4 mg/dL
same,Hb,6 h,13.2 g/dL
same,Ht,6 h,39.8%
same,Lym,6 h,76.4%
same,MCH,6 h,20.7 pg
same,MCHC,6 h,33.1%
same,MCV,6 h,62.7 fL
same,Mono,6 h,2.8%
same,Neu,6 h,19.6%
same,PT,6 h,13.9 s
same,Plat,6 h,112.2 x10_4/uL
same,RBC,6 h,634.4 x10_4/ul
same,Ret,6 h,8.3%
same,WBC,6 h,84.7 x10_2/uL
same,KIDNEY_L,6 h,0.9 g
same,KIDNEY_R,6 h,0.9 g
same,KIDNEY_TOTAL,6 h,1.8 g
same,LIVER,6 h,8.2 g
same,A/G,6 h,0.9
same,ALP,6 h,1530.8 IU/L
same,ALT,6 h,35 IU/L
same,AST,6 h,77.4 IU/L
same,BUN,6 h,7.8 mg/dL
same,CRE,6 h,0.2 mg/dL
same,Ca,6 h,11.1 mg/dL
same,Cl,6 h,105 meq/L
same,DBIL,6 h,0.004 mg/dL
same,GLC,6 h,157.2 mg/dL
same,IP,6 h,9.1 mg/dL
same,K,6 h,4.1 meq/L
same,LDH,6 h,79.6 IU/L
same,Na,6 h,143 meq/L
same,PL,6 h,136.8 mg/dL
same,RALB,6 h,2.5 g/dL
same,TBIL,6 h,0.054 mg/dL
same,TC,6 h,75.6 mg/dL
same,TG,6 h,56.2 mg/dL
same,TP,6 h,5.4 g/dL
same,gamma-GTP,6 h,1.2 IU/L
same,TERMINAL_BW,9 h,204.4 g
same,APTT,9 h,18.2 s
same,Bas,9 h,0.6%
same,Eos,9 h,1%
same,Fbg,9 h,261.6 mg/dL
same,Hb,9 h,13.3 g/dL
same,Ht,9 h,40.4%
same,Lym,9 h,75.4%
same,MCH,9 h,20.5 pg
same,MCHC,9 h,33.1%
same,MCV,9 h,62.1 fL
same,Mono,9 h,1.8%
same,Neu,9 h,21.6%
same,PT,9 h,14.3 s
same,Plat,9 h,129.3 x10_4/uL
same,RBC,9 h,650.4 x10_4/ul
same,Ret,9 h,8.1%
same,WBC,9 h,69 x10_2/uL
same,KIDNEY_L,9 h,0.9 g
same,KIDNEY_R,9 h,0.9 g
same,KIDNEY_TOTAL,9 h,1.8 g
same,LIVER,9 h,7.9 g
same,A/G,9 h,0.9
same,ALP,9 h,1501.2 IU/L
same,ALT,9 h,35 IU/L
same,AST,9 h,77.6 IU/L
same,BUN,9 h,9.2 mg/dL
same,CRE,9 h,0.2 mg/dL
same,Ca,9 h,10.8 mg/dL
same,Cl,9 h,106 meq/L
same,DBIL,9 h,0 mg/dL
same,GLC,9 h,182.4 mg/dL
same,IP,9 h,9.6 mg/dL
same,K,9 h,3.9 meq/L
same,LDH,9 h,70 IU/L
same,Na,9 h,145 meq/L
same,PL,9 h,130.6 mg/dL
same,RALB,9 h,2.6 g/dL
same,TBIL,9 h,0.05 mg/dL
same,TC,9 h,72.8 mg/dL
same,TG,9 h,39 mg/dL
same,TP,9 h,5.5 g/dL
same,gamma-GTP,9 h,1.2 IU/L
same,TERMINAL_BW,24 h,218.8 g
same,APTT,24 h,16.2 s
same,Bas,24 h,0.8%
same,Eos,24 h,1%
same,Fbg,24 h,271 mg/dL
same,Hb,24 h,13.5 g/dL
same,Ht,24 h,40.9%
same,Lym,24 h,80.6%
same,MCH,24 h,20.9 pg
same,MCHC,24 h,33%
same,MCV,24 h,63.3 fL
same,Mono,24 h,2%
same,Neu,24 h,15.2%
same,PT,24 h,14.4 s
same,Plat,24 h,124.1 x10_4/uL
same,RBC,24 h,646.8 x10_4/ul
same,Ret,24 h,7%
same,WBC,24 h,111.8 x10_2/uL
same,KIDNEY_L,24 h,1 g
same,KIDNEY_R,24 h,1 g
same,KIDNEY_TOTAL,24 h,1.9 g
same,LIVER,24 h,9.7 g
same,A/G,24 h,0.9
same,ALP,24 h,1870.8 IU/L
same,ALT,24 h,44.4 IU/L
same,AST,24 h,73.8 IU/L
same,BUN,24 h,13.4 mg/dL
same,CRE,24 h,0.2 mg/dL
same,Ca,24 h,11.2 mg/dL
same,Cl,24 h,105.2 meq/L
same,DBIL,24 h,0.008 mg/dL
same,GLC,24 h,177.2 mg/dL
same,IP,24 h,7.8 mg/dL
same,K,24 h,4.2 meq/L
same,LDH,24 h,85.4 IU/L
same,Na,24 h,142.6 meq/L
same,PL,24 h,148.4 mg/dL

# Source: ChEMBL document CHEMBL3885861, “Open TG-GATES”
